Measured values reported in patent US20230129258A1, “HETEROTANDEM BICYCLIC PEPTIDE COMPLEXES” (BicycleTx Limited, priority 2019, published 2023).
Read-outs that look alike come from different tables or passages of the source.

Target: CD137 (Homo sapiens, UniProt Q07011)
Test: CD137 reporter assay (Promega CD137 luciferase reporter, Jurkat cells) in co-culture with Nectin-4-expressing tumor cells
Type: cell-based
Design: host or cells: Jurkat reporter cells
[1] = EC50 (nM), co-culture with HT1376, Table 2A
[2] = co-culture with HT1376, Table 2A

CD137, sequence (Q07011 24-255): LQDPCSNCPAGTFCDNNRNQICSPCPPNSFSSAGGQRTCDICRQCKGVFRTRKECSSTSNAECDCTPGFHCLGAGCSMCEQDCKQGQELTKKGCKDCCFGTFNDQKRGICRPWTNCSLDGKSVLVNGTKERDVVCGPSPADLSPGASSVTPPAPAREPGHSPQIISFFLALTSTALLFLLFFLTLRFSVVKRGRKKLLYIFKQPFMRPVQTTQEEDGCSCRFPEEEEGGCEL

| Structure (SMILES) | EC50 [1] [nM] | Emax [2] | EC50 [nM] |
| --- | --- | --- | --- |
| CCCC[C@@H]1NC(=O)[C@H](Cc2ccc(O)cc2)NC(=O)[C@@H]2CCCN2C(=O)[C@H](CC(=O)O)NC(=O)[C@H](C)NC(=O)[C@H](Cc2ccccc2)NC(=O)[C@@H]2CSCCC(=O)N3CN(CN(C3)C(=O)CCSC[C@@H](C(=O)N[C@@H](C)C(N)=O)NC1=O)C(=O)CCSC[C@H](NC(C)=O)C(=O)N[C@@H](CC(C)(C)C)C(=O)N1CCC[C@H]1C(=O)N[C@@H](CCC(=O)O)C(=O)N[C@H](CCCCNC(=O)CCc1cn(CCOCCOCCOCCN(CCOCCOCCOCCC(=O)NCCCC[C@H]3NC(=O)[C@H](Cc4cccc5ccccc45)NC(=O)[C@@H]4CCCN4C(=O)[C@@H](NC(C)=O)CSCCC(=O)N4CN5CN(C4)C(=O)CCSC[C@H](NC3=O)C(=O)N[C@@H](CCSC)C(=O)N[C@@H](CCCCNC(=N)N)C(=O)N[C@@H](CC(=O)O)C(=O)N[C@@H](Cc3c[nH]c4ccccc34)C(=O)N[C@@H](CO)C(=O)N[C@@H]([C@@H](C)O)C(=O)N3CCC[C@H]3C(=O)N3C[C@H](O)C[C@H]3C(=O)N[C@@H](Cc3c[nH]c4ccccc34)C(=O)N[C@H](C(N)=O)CSCCC5=O)CCOCCOCCOCCn3cc(CCC(=O)NCCCC[C@H]4NC(=O)[C@H](CCC(=O)O)NC(=O)[C@@H]5CCCN5C(=O)[C@H](CC(C)(C)C)NC(=O)[C@@H](NC(C)=O)CSCCC(=O)N5CN6CN(C5)C(=O)CCSC[C@H](NC(=O)[C@H](Cc5ccc(O)cc5)NC(=O)[C@@H]5CCCN5C4=O)C(=O)N[C@@H](Cc4ccccc4)C(=O)N[C@@H](C)C(=O)N[C@@H](CC(=O)O)C(=O)N4CCC[C@H]4C(=O)N[C@@H](Cc4ccc(O)cc4)C(=O)N[C@@H](CCCC)C(=O)N[C@H](C(=O)N[C@@H](C)C(N)=O)CSCCC6=O)nn3)nn1)C(=O)N1CCC[C@H]1C(=O)N[C@@H](Cc1ccc(O)cc1)C(=O)N2 [BCY12490] | 0.23 |  |  |
| CCCC[C@@H]1NC(=O)[C@H](Cc2ccc(O)cc2)NC(=O)[C@@H]2CCCN2C(=O)[C@H](CCC(=O)O)NC(=O)[C@H](C)NC(=O)[C@H](Cc2ccccc2)NC(=O)[C@@H]2CSCCC(=O)N3CN(CN(C3)C(=O)CCSC[C@H](NC(C)=O)C(=O)N[C@@H](CC(C)(C)C)C(=O)N3CCC[C@H]3C(=O)N[C@@H](CCC(=O)O)C(=O)N[C@H](CCCCNC(=O)CCc3cn(CCOCCOCCOCCN(CCOCCOCCOCCC(=O)N[C@H]4CSCCC(=O)N5CN6CN(C5)C(=O)CCSC[C@H](NC(=O)[C@@H](CC(=O)O)NC(=O)[C@H](Cc5cccc7ccccc57)NC(=O)[C@@H]5CCCN5C4=O)C(=O)N[C@@H](CCSC)C(=O)N[C@@H](CCCCNC(=N)N)C(=O)N[C@@H](CC(=O)O)C(=O)N[C@@H](Cc4c[nH]c5ccccc45)C(=O)N[C@@H](CO)C(=O)N[C@@H]([C@@H](C)O)C(=O)N4CCC[C@H]4C(=O)N4C[C@H](O)C[C@H]4C(=O)N[C@@H](Cc4c[nH]c5ccccc45)C(=O)N[C@H](C(N)=O)CSCCC6=O)CCOCCOCCOCCn4cc(CCC(=O)NCCCC[C@H]5NC(=O)[C@H](CCC(=O)O)NC(=O)[C@@H]6CCCN6C(=O)[C@H](CC(C)(C)C)NC(=O)[C@@H](NC(C)=O)CSCCC(=O)N6CN7CN(C6)C(=O)CCSC[C@H](NC(=O)[C@H](Cc6ccc(O)cc6)NC(=O)[C@@H]6CCCN6C5=O)C(=O)N[C@@H](Cc5ccccc5)C(=O)N[C@@H](C)C(=O)N[C@@H](CCC(=O)O)C(=O)N5CCC[C@H]5C(=O)N[C@@H](Cc5ccc(O)cc5)C(=O)N[C@@H](CCCC)C(=O)N[C@H](C(N)=O)CSCCC7=O)nn4)nn3)C(=O)N3CCC[C@H]3C(=O)N[C@@H](Cc3ccc(O)cc3)C(=O)N2)C(=O)CCSC[C@@H](C(N)=O)NC1=O [BCY12487] |  | 12 fold induction over background |  |
| CCCC[C@@H]1NC(=O)[C@H](Cc2ccc(O)cc2)NC(=O)[C@@H]2CCCN2C(=O)[C@H](CC(=O)O)NC(=O)[C@H](C)NC(=O)[C@H](Cc2ccccc2)NC(=O)[C@@H]2CSCCC(=O)N3CN(CN(C3)C(=O)CCSC[C@@H](C(=O)N[C@@H](C)C(N)=O)NC1=O)C(=O)CCSC[C@H](NC(C)=O)C(=O)N[C@@H](CC(C)(C)C)C(=O)N1CCC[C@H]1C(=O)N[C@@H](CCC(=O)O)C(=O)N[C@H](CCCCNC(=O)CCc1cn(CCOCCOCCOCCOCCOCCOCCOCCOCCOCCOCCNC(=O)CCOCCN(CCOCCC(=O)NCCOCCOCCOCCOCCOCCOCCOCCOCCOCCOCCn3cc(CCC(=O)NCCCC[C@H]4NC(=O)[C@H](CCC(=O)O)NC(=O)[C@@H]5CCCN5C(=O)[C@H](CC(C)(C)C)NC(=O)[C@@H](NC(C)=O)CSCCC(=O)N5CN6CN(C5)C(=O)CCSC[C@H](NC(=O)[C@H](Cc5ccc(O)cc5)NC(=O)[C@@H]5CCCN5C4=O)C(=O)N[C@@H](Cc4ccccc4)C(=O)N[C@@H](C)C(=O)N[C@@H](CC(=O)O)C(=O)N4CCC[C@H]4C(=O)N[C@@H](Cc4ccc(O)cc4)C(=O)N[C@@H](CCCC)C(=O)N[C@H](C(=O)N[C@@H](C)C(N)=O)CSCCC6=O)nn3)CCOCCC(=O)NCCOCCOCCOCCOCCOCCOCCOCCOCCOCCOCCn3cc(CCC(=O)N[C@H]4CSCCC(=O)N5CN6CN(C5)C(=O)CCSC[C@H](NC(=O)[C@@H](CC(=O)O)NC(=O)[C@H](Cc5cccc7ccccc57)NC(=O)[C@@H]5CCCN5C4=O)C(=O)N[C@@H](CCSC)C(=O)N[C@@H](CCCCNC(=N)N)C(=O)N[C@@H](CC(=O)O)C(=O)N[C@@H](Cc4c[nH]c5ccccc45)C(=O)N[C@@H](CO)C(=O)N[C@@H]([C@@H](C)O)C(=O)N4CCC[C@H]4C(=O)N4C[C@H](O)C[C@H]4C(=O)N[C@@H](Cc4c[nH]c5ccccc45)C(=O)N[C@H](C(N)=O)CSCCC6=O)nn3)nn1)C(=O)N1CCC[C@H]1C(=O)N[C@@H](Cc1ccc(O)cc1)C(=O)N2 [BCY11027] | 0.18 |  |  |
| CCCC[C@@H]1NC(=O)[C@H](Cc2ccc(O)cc2)NC(=O)[C@@H]2CCCN2C(=O)[C@H](CC(=O)O)NC(=O)[C@H](C)NC(=O)[C@H](Cc2ccccc2)NC(=O)[C@@H]2CSCCC(=O)N3CN(CN(C3)C(=O)CCSC[C@@H](C(=O)N[C@@H](CNC(=O)CCc3cn(CCOCCOCCOCCOCCOCCOCCOCCOCCOCCOCCNC(=O)c4cc(C(=O)NCCOCCOCCOCCOCCOCCOCCOCCOCCOCCOCCn5cc(CCC(=O)NC[C@H](NC(=O)[C@@H]6CSCCC(=O)N7CN8CN(C7)C(=O)CCSC[C@H](NC(=O)[C@H](Cc7ccc(O)cc7)NC(=O)[C@@H]7CCCN7C(=O)[C@@H](C)NC(=O)[C@H](CCC(=O)O)NC(=O)[C@@H]7CCCN7C(=O)[C@H](CC(C)(C)C)NC(=O)[C@@H](NC(C)=O)CSCCC8=O)C(=O)N[C@@H](Cc7ccccc7)C(=O)N[C@@H](C)C(=O)N[C@@H](CC(=O)O)C(=O)N7CCC[C@H]7C(=O)N[C@@H](Cc7ccc(O)cc7)C(=O)N[C@@H](CCCC)C(=O)N6)C(N)=O)nn5)cc(C(=O)NCCOCCOCCOCCOCCOCCOCCOCCOCCOCCOCCn5cc(CCC(=O)N[C@H]6CSCCC(=O)N7CN8CN(C7)C(=O)CCSC[C@H](NC(=O)[C@@H](CC(=O)O)NC(=O)[C@H](Cc7cccc9ccccc79)NC(=O)[C@@H]7CCCN7C6=O)C(=O)N[C@@H](CCSC)C(=O)N[C@@H](CCCCNC(=N)N)C(=O)N[C@@H](CC(=O)O)C(=O)N[C@@H](Cc6c[nH]c7ccccc67)C(=O)N[C@@H](CO)C(=O)N[C@@H]([C@@H](C)O)C(=O)N6CCC[C@H]6C(=O)N6C[C@H](O)C[C@H]6C(=O)N[C@@H](Cc6c[nH]c7ccccc67)C(=O)N[C@H](C(N)=O)CSCCC8=O)nn5)c4)nn3)C(N)=O)NC1=O)C(=O)CCSC[C@H](NC(C)=O)C(=O)N[C@@H](CC(C)(C)C)C(=O)N1CCC[C@H]1C(=O)N[C@@H](CCC(=O)O)C(=O)N[C@H](C)C(=O)N1CCC[C@H]1C(=O)N[C@@H](Cc1ccc(O)cc1)C(=O)N2 [BCY10919] | 0.19 | 62 fold induction over background |  |
| CCCC[C@@H]1NC(=O)[C@H](Cc2ccc(O)cc2)NC(=O)[C@@H]2CCCN2C(=O)[C@H](CC(=O)O)NC(=O)[C@H](C)NC(=O)[C@H](Cc2ccccc2)NC(=O)[C@@H]2CSCCC(=O)N3CN(CN(C3)C(=O)CCSC[C@@H](C(=O)N[C@@H](C)C(N)=O)NC1=O)C(=O)CCSC[C@H](NC(C)=O)C(=O)N[C@@H](CC(C)(C)C)C(=O)N1CCC[C@H]1C(=O)N[C@@H](CCC(=O)O)C(=O)N[C@H](CCCCNC(=O)CCc1cn(CCOCCOCCOCCOCCOCCOCCOCCOCCOCCOCCNC(=O)CCOCC(COCCC(=O)NCCOCCOCCOCCOCCOCCOCCOCCOCCOCCOCCn3cc(CCC(=O)NCCCC[C@H]4NC(=O)[C@H](CCC(=O)O)NC(=O)[C@@H]5CCCN5C(=O)[C@H](CC(C)(C)C)NC(=O)[C@@H](NC(C)=O)CSCCC(=O)N5CN6CN(C5)C(=O)CCSC[C@H](NC(=O)[C@H](Cc5ccc(O)cc5)NC(=O)[C@@H]5CCCN5C4=O)C(=O)N[C@@H](Cc4ccccc4)C(=O)N[C@@H](C)C(=O)N[C@@H](CC(=O)O)C(=O)N4CCC[C@H]4C(=O)N[C@@H](Cc4ccc(O)cc4)C(=O)N[C@@H](CCCC)C(=O)N[C@H](C(=O)N[C@@H](C)C(N)=O)CSCCC6=O)nn3)(COCCC(=O)NCCOCCOCCOCCOCCOCCOCCOCCOCCOCCOCCn3cc(CCC(=O)NCCCC[C@H]4NC(=O)[C@H](CCC(=O)O)NC(=O)[C@@H]5CCCN5C(=O)[C@H](CC(C)(C)C)NC(=O)[C@@H](NC(C)=O)CSCCC(=O)N5CN6CN(C5)C(=O)CCSC[C@H](NC(=O)[C@H](Cc5ccc(O)cc5)NC(=O)[C@@H]5CCCN5C4=O)C(=O)N[C@@H](Cc4ccccc4)C(=O)N[C@@H](C)C(=O)N[C@@H](CC(=O)O)C(=O)N4CCC[C@H]4C(=O)N[C@@H](Cc4ccc(O)cc4)C(=O)N[C@@H](CCCC)C(=O)N[C@H](C(=O)N[C@@H](C)C(N)=O)CSCCC6=O)nn3)COCCC(=O)NCCOCCOCCOCCOCCOCCOCCOCCOCCOCCOCCn3cc(CCC(=O)NCCC(=O)N[C@H]4CSCCC(=O)N5CN6CN(C5)C(=O)CCSC[C@H](NC(=O)[C@@H](CC(=O)O)NC(=O)[C@H](Cc5cccc7ccccc57)NC(=O)[C@@H]5CCCN5C4=O)C(=O)N[C@@H](CCSC)C(=O)N[C@@H](CCCCNC(=N)N)C(=O)N[C@@H](CC(=O)O)C(=O)N[C@@H](Cc4c[nH]c5ccccc45)C(=O)N[C@@H](CO)C(=O)N[C@@H]([C@@H](C)O)C(=O)N4CCC[C@H]4C(=O)N4C[C@H](O)C[C@H]4C(=O)N[C@@H](Cc4c[nH]c5ccccc45)C(=O)N[C@H](C(N)=O)CSCCC6=O)nn3)nn1)C(=O)N1CCC[C@H]1C(=O)N[C@@H](Cc1ccc(O)cc1)C(=O)N2 [BCY11022] |  | 66 fold induction over background | 0.2 |
